# Reference: patent US11357766B2, “Compositions and methods for treating cancer” (Texas Tech University System, priority 2017, dated 2022)
# Key:
# [1] = system: behavioral activity of mice; assay: Mice behavioral analysis (Versamax); type: in vivo; conditions: after 67 days of 10 mg/kg; mice bearing orthotopic pancreatic tumors
# Procedure: In orthotopic experiment, behavioral activity was measured using Versamax (Accuscan instruments) after 67 days of oral administration of 10 mg/kg pimavanserin tartrate. The following were measured, in FIG. 6A total distance; FIG. 6B horizontal activity' FIG. 6C vertical activity; and FIG. 6D ambulatory activity. Values are plotted as mean±SEM.
# Mice behavioral analysis. In orthotopic studies, the behavioral activity of mice was analyzed after chronic administration of pimavanserin tartrate for […]. The behavioral analysis was performed by Versamax (Accuscan Instruments Inc., Columbus, Ohio, USA) as previously described by the present inventors (7, 12).
# Pimavanserin tartrate is an anti-psychotic drug used for the treatment of Parkinson disease. Owing to its action on the central nervous system, the behavioral activity of mice after long-term pimavanserin tartrate administration was assessed. The behavioral activity of mice was monitored after 67 days of 10 mg/kg pimavanserin treatment using Versamax (Accuscan Instruments Inc.).
# [2] = system: orthotopically implanted PANC1-luc tumors; assay: Orthotopic pancreatic tumor model; type: in vivo
# Procedure: 1×10^6 PANC-1 luc cells were surgically implanted on the pancreas of 4-6 week old female athymic nude mice (n=5). Mice were treated with 10 mg/kg pimavanserin tartrate at day 17 till day 69. In FIG. 5A tumor luminescence was measured about twice a week and plotted against days. Values are plotted as mean±SEM. In FIG. 5B orthotopic tumors were aseptically removed and the tumor size was compared between control and pimavanserin tartrate treated group. […] The average weight of the mice is plotted against days. Values are plotted as mean±SEM.
# Orthotopic pancreatic tumor model. 4-6 week old female athymic nude mice were used for orthotopic injection. All the experiments were performed under the strict compliance and regulations approved from Institutional Animal Care and Use Committee (IACUC), Texas Tech University Health Sciences Center, Amarillo, Tex. Mice were anesthetized by using isoflorane and a minor incision was made in the left abdomen. Stably transfected luciferase-expressing PANC1 (PANC1-luc) cells were orthotopically-implanted in the pancreas. 1×10^6 exponentially growing PANC1-luc cells in 20 μl PBS suspension were injected into the sub-capsular region on the pancreas using a 30-gauge sterile needle. The peritoneum and skin incisions were closed sequentially with absorbable suture. Buprenorphine was administered as a pain killer to mice at every 8 hours for 2 days. The growth of orthotopically-implanted tumors was monitored by measuring the luminescence by IVIS imaging (Calliper Life Sciences). In order to determine the basal luminescence value, mice were imaged on the same day after injecting luciferin (3 mg/mouse, i.p.). Mice were randomly divided into two groups (control and treatment) on day 17 after orthotopic injection of PANC1 luc cells. Control group received vehicle only whereas treatment group received 10 mg/kg pimavanserin tartrate by oral gavage everyday. The study was terminated at day 69 by humanely euthanizing the mice using CO2 overdose. The mice was dissected and representative mouse from control and treatment groups were imaged for luminescence. The pancreas from control and treatment groups were aseptically excised out and snap frozen for western blot analysis, whereas few pancreas were fixed in formalin for immunohistochemical and TUNEL analysis. Mice weight was monitored once a week.
# Pimavanserin inhibits the growth of orthotopic pancreatic tumors. In order to further validate the in-vivo efficacy of pimavanserin, PANC-1 luc cells were orthotopically implanted into the pancreas of athymic nude mice. After 17 days of tumor implantation, mice were treated with 10 mg/kg pimavanserin by oral gavage everyday. […] After terminating the experiment, tumors were removed and weighed. The average weight of pimavanserin treated tumors was 46% less when compared to the tumors excised form control group (FIGS. 5B & 5D). Furthermore, the inventors also compared the luminescence between both the groups in isolated pancreas.
# [3] = system: Akt, STAT3 and sonic hedgehog signaling in AsPC1, BxPC3, PANC1, and MIAPaCa2 cells; assay: Western blot analysis of whole cell lysates; type: cell-based, human; conditions: 48 hours
# Procedure: Briefly, in FIG. 3A AsPC1 cells, FIG. 3B BxPC3 cells, FIG. 3C PANC1 cells, and FIG. 3D MIAPaCa2 cells, were treated with 5, 7.5 and 10 μM pimavanserin tartrate for 48 hours. Representative blots showing a concentration-dependent effect of pimavamserin tartrate on pAkt(S473), pSTAT3(Y705), c-Myc, Oct-4, SOX-2, NANOG, CD44, GLI1, cleaved caspase3. β-actin was used as a loading control. Figures shown are the representative blots of at least three independent tests.
# Western blot analysis. AsPC1, BxPC3, PANC1, and MIAPaCa2 cells were treated with varying concentrations of pimavanserin tartrate for 48 hours. After 48 hours, cells were collected and subjected to PBS wash twice. The whole cell lysates were prepared using 4% (w/v) CHAPS in urea-tris buffer. Protein content in the lysates were estimated using Bradford reagent (Bio-rad, California, USA). 40 μg of protein from whole cell lysates were subjected to SDS-PAGE and the resolved proteins were transferred onto PVDF membrane. The membranes were probed for primary antibodies against pSTAT3(Y705), pAkt(S473), β-catenin, c-Myc, OCT4, SOX-2, NANOG, CD44, GLI1, cleaved caspase-3 and β-actin. All primary antibodies were procured from Cell Signaling Technologies (Danvers, Mass.) except β-actin (Sigma Aldrich, St. Louis, Mo.). Dilution factor was 1:1000 for all the antibodies from Cell Signaling and 1:2000 for β-actin antibody. The membranes were developed as described by the present inventors (16).
# Inhibition of Akt, STAT3 and sonic hedgehog signaling by pimavanserin. Since significant growth suppressive effects and apoptosis by pimavanserin treatment were observed, the inventors further elucidated the molecular mechanism by which pimavanserin mediates the above-mentioned effects. The inventors performed western blot analysis using whole cell lysates from AsPC1, BxPC3, PANC1, and MIAPaCa2 cells treated with 0, 5, 7.5 and 10 μM pimavanserin for 48 hours. […] Akt and STAT3 signaling modulates OCT-4, SOX-2, NANOG to activate GLI1, a transcription factor involved in sonic hedgehog signaling (7).
# [4] = 0, 5, 7.5 and 10 μM, all the cell lines tested, concentration dependent
smiles,measurement,setting,value
"CC(C)COc1ccc(CNC(=O)N(Cc2ccc(F)cc2)C2CCN(C)CC2)cc1 [pimavanserin, N-(4-fluorophenylmethyl)-N-(1-methylpiperidin-4-yl)-N′-(4-(2-methylpropyloxy)phenylmethyl)carbamide]","behavioral activity parameters (total distance, horizontal, vertical and ambulatory activity) vs control",[1],did not change
same,overall weight of the mice vs control (general signs of toxicity),[2]; 10 mg/kg oral gavage everyday,did not reduce
same,suppression of orthotopic pancreatic tumor growth,[2]; 10 mg/kg oral gavage everyday,75%
same,total flux (luminescence) at the end of the experiment,"[2]; 10 mg/kg oral gavage everyday from day 17, day 69, control 1.45542×10^9 photons/second",3.386×10^8 photons/sec
same,decrease of luminescence vs control group,"[2]; 10 mg/kg oral gavage everyday, end of the experiment",75%
same,"average weight of tumors, less than control group","[2]; 10 mg/kg oral gavage everyday, excised tumors after terminating the experiment",46%
same,expression of GLI1,[3]; [4],significantly inhibited
same,phosphorylation of STAT3 at Tyr705,[3]; [4],significantly inhibited
same,"cancer stem cell markers OCT4, SOX-2, NANOG and CD44",[3],remarkable inhibition
same,phosphorylation of Akt at Ser473,"[3]; AsPC1, BxPC3, and MIAPaCa2 cells",significantly reduced
same,expression of β-catenin,[3]; all the cell lines tested,reduced
same,cleavage of caspase 3,"[3]; pancreatic cancer cells, concentration dependent",significant cleavage
